# Source: patent publication US12673945B2, “3-((8-((1H-pyrazol-4-yl)amino)imidazo[1,2-a]pyridin-3-yl)ethinyl)-n-phenylbenzamide derivative, method for preparing same, and pharmaceutical composition containing same as active ingredient for prevention or treatment of cancer” (DAEGU-GYEONGBUK MEDICAL INNOVATION FOUNDATION, priority 2020, dated 2026)
# Assays:
# Assay in all cases: scanMAX Kinase panel (DiscoverX)
# Type in all cases: binding
# [1] = molecular target: T1, ABL1(H396P)-phosphorylated (Homo sapiens, UniProt P00519, H396P); settings: read-out: % Cont @ 1 uM
# T1 construct: purchased DiscoverX
# Procedure: (§1) Among the example compounds of the present invention, the enzyme (kinase) selectivity of the selected compounds of Examples 1 and 4 was measured by requesting DiscoverX. At this time, the experiment was performed using a panel for scanMAX™ Kinase. The concentration of the drug treated to the enzyme was 1 μM in DMSO, and the percentage control (% control) was determined by the method shown in Equation 1 below. (Example Compound−Positive Control)/(Negative Control−Positive control)×100 [Equation 1]
# [2] = molecular target: T2, ABL1(Q252H)-nonphosphorylated (Homo sapiens, UniProt P00519, Q252H); settings: read-out: % Cont @ 1 uM
# T2 construct: purchased DiscoverX
# Procedure: as §1
# [3] = molecular target: T3, ABL1(T315I)-phosphorylated (Homo sapiens, UniProt P00519, T315I); settings: read-out: % Cont @ 1 uM
# T3 construct: purchased DiscoverX
# Procedure: as §1
# AURKB = molecular target: T4, AURKB (Homo sapiens, UniProt Q96GD4); settings: read-out: % Cont @ 1 uM
# T4 construct: purchased DiscoverX scanMAX Kinase panel
# T4 sequence (Q96GD4 whole entry): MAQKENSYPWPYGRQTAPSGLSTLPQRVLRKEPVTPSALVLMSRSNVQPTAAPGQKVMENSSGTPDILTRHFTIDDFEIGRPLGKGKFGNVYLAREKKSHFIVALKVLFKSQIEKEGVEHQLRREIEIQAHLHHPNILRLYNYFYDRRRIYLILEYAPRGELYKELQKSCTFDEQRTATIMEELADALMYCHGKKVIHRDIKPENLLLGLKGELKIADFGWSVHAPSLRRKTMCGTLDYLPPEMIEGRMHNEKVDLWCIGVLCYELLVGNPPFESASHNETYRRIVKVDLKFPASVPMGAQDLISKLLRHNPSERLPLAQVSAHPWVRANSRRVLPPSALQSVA
# Procedure: as §1
# AURKC = molecular target: T5, AURKC (Homo sapiens, UniProt Q9UQB9); settings: read-out: % Cont @ 1 uM
# T5 construct: purchased DiscoverX scanMAX Kinase panel
# Procedure: as §1
# BRK = molecular target: T6, BRK (Homo sapiens, UniProt Q13882); settings: read-out: % Cont @ 1 uM
# T6 construct: purchased DiscoverX scanMAX Kinase panel
# Procedure: as §1
# CDK7 = molecular target: T7, CDK7 (Homo sapiens, UniProt P50613); settings: read-out: % Cont @ 1 uM
# T7 construct: purchased DiscoverX scanMAX Kinase panel
# T7 sequence (P50613 whole entry): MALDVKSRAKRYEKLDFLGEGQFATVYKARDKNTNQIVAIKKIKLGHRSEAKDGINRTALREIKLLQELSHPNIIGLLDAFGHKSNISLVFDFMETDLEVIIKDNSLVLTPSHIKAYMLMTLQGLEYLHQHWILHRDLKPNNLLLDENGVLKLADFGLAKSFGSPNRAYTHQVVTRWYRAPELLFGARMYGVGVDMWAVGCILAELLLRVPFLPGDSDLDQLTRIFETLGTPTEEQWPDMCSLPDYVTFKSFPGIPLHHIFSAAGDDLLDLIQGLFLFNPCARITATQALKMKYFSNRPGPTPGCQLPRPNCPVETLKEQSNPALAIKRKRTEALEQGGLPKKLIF
# Procedure: as §1
# CDKL2 = molecular target: T8, CDKL2 (Homo sapiens, UniProt Q92772); settings: read-out: % Cont @ 1 uM
# T8 construct: purchased DiscoverX scanMAX Kinase panel
# Procedure: as §1
# DDR2 = molecular target: T9, DDR2 (Homo sapiens, UniProt Q16832); settings: read-out: % Cont @ 1 uM
# T9 construct: purchased DiscoverX scanMAX Kinase panel
# Procedure: as §1
# [4] = molecular target: T10, EGFR(L747-E749del, A750P) (Homo sapiens, UniProt P00533, A750P/DEL747-749)
# T10 construct: purchased DiscoverX scanMAX Kinase panel
# Procedure: as §1
# [5] = molecular target: T11, EGFR(L747-S752del, P753S) (Homo sapiens, UniProt P00533, DEL747-752/P753S)
# T11 construct: purchased DiscoverX scanMAX Kinase panel
# Procedure: as §1
# EGFR(S752-I759del) = molecular target: T12, EGFR(S752-I759del) (Homo sapiens, UniProt P00533, DEL752-759)
# T12 construct: purchased DiscoverX scanMAX Kinase panel
# Procedure: as §1
# EPHA1 = molecular target: T13, EPHA1 (Homo sapiens, UniProt P21709); settings: read-out: % Cont @ 1 uM
# T13 construct: purchased DiscoverX scanMAX Kinase panel
# T13 sequence (P21709 26-976): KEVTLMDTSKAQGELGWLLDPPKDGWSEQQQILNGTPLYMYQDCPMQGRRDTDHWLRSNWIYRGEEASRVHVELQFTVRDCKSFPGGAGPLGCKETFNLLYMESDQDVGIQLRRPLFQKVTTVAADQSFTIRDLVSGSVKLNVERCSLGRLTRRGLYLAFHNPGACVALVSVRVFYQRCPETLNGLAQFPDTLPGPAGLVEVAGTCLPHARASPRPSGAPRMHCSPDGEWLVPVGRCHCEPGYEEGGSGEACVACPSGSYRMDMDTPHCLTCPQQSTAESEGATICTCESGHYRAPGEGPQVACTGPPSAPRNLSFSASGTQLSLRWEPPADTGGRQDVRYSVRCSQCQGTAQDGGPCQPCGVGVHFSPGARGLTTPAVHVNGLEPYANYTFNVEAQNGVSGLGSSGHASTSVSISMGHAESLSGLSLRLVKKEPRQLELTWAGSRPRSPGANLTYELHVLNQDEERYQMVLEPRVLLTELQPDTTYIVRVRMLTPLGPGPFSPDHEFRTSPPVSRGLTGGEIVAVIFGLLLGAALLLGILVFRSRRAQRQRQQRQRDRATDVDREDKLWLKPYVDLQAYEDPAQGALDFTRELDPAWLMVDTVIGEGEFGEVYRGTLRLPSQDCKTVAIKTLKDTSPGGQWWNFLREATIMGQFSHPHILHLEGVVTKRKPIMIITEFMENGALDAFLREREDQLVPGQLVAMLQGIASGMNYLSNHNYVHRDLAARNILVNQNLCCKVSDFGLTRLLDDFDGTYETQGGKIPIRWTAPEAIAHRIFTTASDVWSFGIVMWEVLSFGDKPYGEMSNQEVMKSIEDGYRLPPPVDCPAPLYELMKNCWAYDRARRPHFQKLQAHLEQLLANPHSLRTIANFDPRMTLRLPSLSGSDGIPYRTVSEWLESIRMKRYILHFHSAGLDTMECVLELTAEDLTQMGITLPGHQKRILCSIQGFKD
# Procedure: as §1
# EPHA3 = molecular target: T14, EPHA3 (Homo sapiens, UniProt P29320); settings: read-out: % Cont @ 1 uM
# T14 construct: purchased DiscoverX scanMAX Kinase panel
# Procedure: as §1
# EPHA5 = molecular target: T15, EPHA5 (Homo sapiens, UniProt P54756)
# T15 construct: purchased DiscoverX scanMAX Kinase panel
# Procedure: as §1
# ERBB2 = molecular target: T16, ERBB2 (Homo sapiens, UniProt P04626); settings: read-out: % Cont @ 1 uM
# T16 construct: purchased DiscoverX scanMAX Kinase panel
# Procedure: as §1
# FER = molecular target: T17, FER (Homo sapiens, UniProt P16591); settings: read-out: % Cont @ 1 uM
# T17 construct: purchased DiscoverX scanMAX Kinase panel
# Procedure: as §1
# FES = molecular target: T18, FES (Homo sapiens, UniProt P07332); settings: read-out: % Cont @ 1 uM
# T18 construct: purchased DiscoverX scanMAX Kinase panel
# Procedure: as §1
# FGFR1 = molecular target: T19, FGFR1 (Homo sapiens, UniProt P11362); settings: read-out: % Cont @ 1 uM
# T19 construct: purchased DiscoverX scanMAX Kinase panel
# Procedure: as §1
# FLT3(D835V) = molecular target: T20, FLT3(D835V) (Homo sapiens, UniProt P36888, D835V); settings: read-out: % Cont @ 1 uM
# T20 construct: purchased DiscoverX scanMAX Kinase panel
# Procedure: as §1
# FLT3(ITD) = system: FLT3(ITD)
# Procedure: as §1
# FLT4 = molecular target: T21, FLT4 (Homo sapiens, UniProt P35916); settings: read-out: % Cont @ 1 uM
# T21 construct: purchased DiscoverX scanMAX Kinase panel
# Procedure: as §1
# FYN = molecular target: T22, FYN (Homo sapiens, UniProt P06241); settings: read-out: % Cont @ 1 uM
# T22 construct: purchased DiscoverX scanMAX Kinase panel
# Procedure: as §1
# KIT(A829P) = molecular target: T23, KIT(A829P) (Homo sapiens, UniProt P10721, A829P); settings: read-out: % Cont @ 1 uM
# T23 construct: purchased DiscoverX scanMAX Kinase panel
# Procedure: as §1
# KIT(D816V) = molecular target: T24, KIT(D816V) (Homo sapiens, UniProt P10721, D816V); settings: read-out: % Cont @ 1 uM
# T24 construct: purchased DiscoverX scanMAX Kinase panel
# Procedure: as §1
# LCK = molecular target: T25, LCK (Homo sapiens, UniProt P06239); settings: read-out: % Cont @ 1 uM
# T25 construct: purchased DiscoverX scanMAX Kinase panel
# Procedure: as §1
# MAP4K5 = molecular target: T26, MAP4K5 (Homo sapiens, UniProt Q9Y4K4); settings: read-out: % Cont @ 1 uM
# T26 construct: purchased DiscoverX scanMAX Kinase panel
# Procedure: as §1
# PDGFRA = molecular target: T27, PDGFRA (Homo sapiens, UniProt P16234); settings: read-out: % Cont @ 1 uM
# T27 construct: purchased DiscoverX scanMAX Kinase panel
# Procedure: as §1
# PFTAIRE2 = molecular target: T28, PFTAIRE2 (Homo sapiens, UniProt Q96Q40); settings: read-out: % Cont @ 1 uM
# T28 construct: purchased DiscoverX scanMAX Kinase panel
# Procedure: as §1
# RIOK3 = molecular target: T29, RIOK3 (Homo sapiens, UniProt O14730); settings: read-out: % Cont @ 1 uM
# T29 construct: purchased DiscoverX scanMAX Kinase panel
# Procedure: as §1
# SIK = molecular target: T30, SIK (Homo sapiens, UniProt P57059)
# T30 construct: purchased DiscoverX scanMAX Kinase panel
# Procedure: as §1
# STK36 = molecular target: T31, STK36 (Homo sapiens, UniProt Q9NRP7); settings: read-out: % Cont @ 1 uM
# T31 construct: purchased DiscoverX scanMAX Kinase panel
# T31 sequence (Q9NRP7 whole entry): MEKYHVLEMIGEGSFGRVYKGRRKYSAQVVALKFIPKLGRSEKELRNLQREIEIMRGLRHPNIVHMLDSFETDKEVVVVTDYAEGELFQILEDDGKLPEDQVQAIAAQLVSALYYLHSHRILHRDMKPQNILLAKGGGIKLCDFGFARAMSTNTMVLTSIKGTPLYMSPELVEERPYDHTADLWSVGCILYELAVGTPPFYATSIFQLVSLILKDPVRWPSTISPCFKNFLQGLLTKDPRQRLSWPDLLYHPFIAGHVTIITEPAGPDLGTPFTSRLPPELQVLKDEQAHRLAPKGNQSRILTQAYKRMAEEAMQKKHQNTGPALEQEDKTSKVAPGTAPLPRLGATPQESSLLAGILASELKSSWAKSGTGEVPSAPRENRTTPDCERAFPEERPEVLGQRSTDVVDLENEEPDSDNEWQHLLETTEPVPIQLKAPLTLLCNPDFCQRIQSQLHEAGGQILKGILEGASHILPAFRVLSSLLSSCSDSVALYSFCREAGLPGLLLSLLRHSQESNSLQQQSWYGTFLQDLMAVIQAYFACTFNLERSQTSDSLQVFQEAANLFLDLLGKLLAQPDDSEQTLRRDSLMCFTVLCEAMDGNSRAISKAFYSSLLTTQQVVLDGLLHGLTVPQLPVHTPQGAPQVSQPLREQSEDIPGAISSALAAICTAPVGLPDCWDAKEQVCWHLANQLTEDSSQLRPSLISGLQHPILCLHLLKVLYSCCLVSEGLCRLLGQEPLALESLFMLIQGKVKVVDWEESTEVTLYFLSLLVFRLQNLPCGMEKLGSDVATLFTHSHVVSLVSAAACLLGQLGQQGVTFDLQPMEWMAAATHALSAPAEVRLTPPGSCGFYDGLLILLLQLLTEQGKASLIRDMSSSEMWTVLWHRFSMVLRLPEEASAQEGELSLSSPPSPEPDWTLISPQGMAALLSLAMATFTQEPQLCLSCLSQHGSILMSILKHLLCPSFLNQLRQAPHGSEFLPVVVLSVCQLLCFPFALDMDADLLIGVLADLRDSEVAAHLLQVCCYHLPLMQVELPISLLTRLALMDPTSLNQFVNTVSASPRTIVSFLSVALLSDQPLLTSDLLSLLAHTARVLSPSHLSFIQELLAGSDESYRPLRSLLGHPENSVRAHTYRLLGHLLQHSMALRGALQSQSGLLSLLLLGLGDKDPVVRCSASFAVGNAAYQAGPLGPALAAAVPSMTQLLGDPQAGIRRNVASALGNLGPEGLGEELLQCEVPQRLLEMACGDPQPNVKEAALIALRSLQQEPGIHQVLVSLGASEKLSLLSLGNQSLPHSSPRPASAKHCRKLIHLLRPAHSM
# Procedure: as §1
# TAK1 = molecular target: T32, TAK1 (Homo sapiens, UniProt O43318); settings: read-out: % Cont @ 1 uM
# T32 construct: purchased DiscoverX scanMAX Kinase panel
# T32 sequence (O43318 whole entry): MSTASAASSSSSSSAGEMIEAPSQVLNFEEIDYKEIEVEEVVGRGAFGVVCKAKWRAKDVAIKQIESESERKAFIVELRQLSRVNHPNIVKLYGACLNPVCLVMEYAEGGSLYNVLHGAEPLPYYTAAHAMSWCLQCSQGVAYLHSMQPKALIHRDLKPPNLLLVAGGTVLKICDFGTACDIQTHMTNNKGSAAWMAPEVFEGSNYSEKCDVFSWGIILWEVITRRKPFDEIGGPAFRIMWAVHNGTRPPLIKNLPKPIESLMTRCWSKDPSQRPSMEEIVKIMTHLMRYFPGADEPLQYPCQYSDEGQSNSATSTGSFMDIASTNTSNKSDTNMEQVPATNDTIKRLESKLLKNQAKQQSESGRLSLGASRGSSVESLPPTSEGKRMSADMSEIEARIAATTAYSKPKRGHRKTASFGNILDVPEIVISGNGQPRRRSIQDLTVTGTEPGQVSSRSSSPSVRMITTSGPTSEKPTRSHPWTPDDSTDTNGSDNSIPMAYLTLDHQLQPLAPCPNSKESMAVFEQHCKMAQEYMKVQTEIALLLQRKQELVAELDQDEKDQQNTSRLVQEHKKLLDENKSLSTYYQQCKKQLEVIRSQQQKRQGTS
# Procedure: as §1
# TIE1 = molecular target: T33, TIE1 (Homo sapiens, UniProt P35590); settings: read-out: % Cont @ 1 uM
# T33 construct: purchased DiscoverX scanMAX Kinase panel
# T33 sequence (P35590 22-1138): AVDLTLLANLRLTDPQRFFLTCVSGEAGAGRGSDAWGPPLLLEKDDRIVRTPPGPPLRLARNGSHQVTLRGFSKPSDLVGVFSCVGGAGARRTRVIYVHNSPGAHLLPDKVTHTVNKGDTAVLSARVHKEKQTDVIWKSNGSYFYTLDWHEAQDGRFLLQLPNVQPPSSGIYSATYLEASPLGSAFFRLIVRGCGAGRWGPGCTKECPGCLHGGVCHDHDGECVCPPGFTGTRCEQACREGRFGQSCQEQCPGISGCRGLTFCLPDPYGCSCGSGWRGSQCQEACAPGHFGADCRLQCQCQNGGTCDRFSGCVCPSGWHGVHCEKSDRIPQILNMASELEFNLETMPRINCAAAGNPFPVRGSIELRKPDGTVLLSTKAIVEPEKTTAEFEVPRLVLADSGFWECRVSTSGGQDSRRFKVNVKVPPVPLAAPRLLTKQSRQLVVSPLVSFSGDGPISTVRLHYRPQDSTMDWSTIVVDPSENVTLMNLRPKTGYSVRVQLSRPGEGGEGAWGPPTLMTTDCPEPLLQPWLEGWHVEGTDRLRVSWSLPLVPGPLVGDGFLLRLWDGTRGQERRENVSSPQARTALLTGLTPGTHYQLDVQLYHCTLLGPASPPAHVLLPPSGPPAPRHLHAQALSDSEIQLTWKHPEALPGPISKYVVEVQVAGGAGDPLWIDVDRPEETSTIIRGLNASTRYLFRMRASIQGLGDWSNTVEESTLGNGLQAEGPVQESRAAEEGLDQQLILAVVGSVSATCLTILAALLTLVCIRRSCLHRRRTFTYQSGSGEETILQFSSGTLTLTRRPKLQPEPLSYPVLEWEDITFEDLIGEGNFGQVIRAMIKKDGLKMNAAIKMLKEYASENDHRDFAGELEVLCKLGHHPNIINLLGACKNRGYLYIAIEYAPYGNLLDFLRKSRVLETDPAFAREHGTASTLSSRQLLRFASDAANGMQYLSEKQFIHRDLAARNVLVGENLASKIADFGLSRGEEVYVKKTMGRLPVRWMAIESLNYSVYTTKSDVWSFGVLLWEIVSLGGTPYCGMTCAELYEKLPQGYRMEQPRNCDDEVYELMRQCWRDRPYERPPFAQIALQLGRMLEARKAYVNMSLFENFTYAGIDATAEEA
# Procedure: as §1
# TRKC = molecular target: T34, TRKC (Homo sapiens, UniProt Q16288); settings: read-out: % Cont @ 1 uM
# T34 construct: purchased DiscoverX scanMAX Kinase panel
# Procedure: as §1
# [6] = molecular target: T35, TYK2(JH1domain-catalytic) (Homo sapiens, UniProt P29597)
# T35 construct: TYK2(JH1domain-catalytic); purchased DiscoverX scanMAX Kinase panel
# Procedure: as §1
# YSK4 = molecular target: T36, YSK4 (Homo sapiens, UniProt Q56UN5); settings: read-out: % Cont @ 1 uM
# T36 construct: purchased DiscoverX scanMAX Kinase panel
# Procedure: as §1
# p38-beta = molecular target: T37, p38-beta (Homo sapiens, UniProt Q15759); settings: read-out: % Cont @ 1 uM
# T37 construct: purchased DiscoverX scanMAX Kinase panel
# T37 sequence (Q15759 whole entry): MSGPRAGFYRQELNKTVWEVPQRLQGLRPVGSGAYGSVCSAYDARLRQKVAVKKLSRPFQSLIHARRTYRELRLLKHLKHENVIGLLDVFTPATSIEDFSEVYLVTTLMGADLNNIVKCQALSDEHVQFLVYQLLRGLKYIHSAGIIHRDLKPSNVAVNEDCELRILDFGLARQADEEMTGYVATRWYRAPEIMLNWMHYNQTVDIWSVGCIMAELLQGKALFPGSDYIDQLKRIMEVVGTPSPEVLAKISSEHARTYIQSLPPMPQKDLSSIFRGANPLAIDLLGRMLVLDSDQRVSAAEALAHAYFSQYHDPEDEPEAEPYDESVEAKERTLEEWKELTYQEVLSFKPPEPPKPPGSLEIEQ
# Procedure: as §1
SMILES,remaining binding at 1 µM [1],remaining binding at 1 µM [2],remaining binding at 1 µM [3],remaining binding at 1 µM (AURKB),remaining binding at 1 µM (AURKC),remaining binding at 1 µM (BRK),remaining binding at 1 µM (CDK7),remaining binding at 1 µM (CDKL2),remaining binding at 1 µM (DDR2),% Cont @ 1 uM [4],% Cont @ 1 uM [5],% Cont @ 1 uM (EGFR(S752-I759del)),remaining binding at 1 µM (EPHA1),remaining binding at 1 µM (EPHA3),% Cont @ 1 uM (EPHA5),remaining binding at 1 µM (ERBB2),remaining binding at 1 µM (FER),remaining binding at 1 µM (FES),remaining binding at 1 µM (FGFR1),remaining binding at 1 µM (FLT3(D835V)),also measured
"Cc1cn(-c2cc(NC(=O)c3cc(C#Cc4cnc5c(Nc6cnn(C)c6)cccn45)c(C)cc3F)cc(C(F)(F)F)c2)cn1 [Example 4, 2-fluoro-4-methyl-N-(3-(4-methyl-1H-imidazol-1-yl)-5-(trifluoromethyl)phenyl)-5-((8-((1-methyl-1H-pyrazol-4-yl)amino)imidazo[1,2-a]pyridin-3-yl)ethynyl)benzamide]",9.6%,4.1%,16%,57%,39%,78%,71%,14%,6.5%,24%,40%,30%,37%,8.4%,26%,65%,71%,55%,27%,25%,% Cont @ 1 uM (FLT3(ITD)): 6.6%; remaining binding at 1 µM (FLT4): 4.4%; remaining binding at 1 µM (FYN): 32%; percent of control binding at 1 µM (KIT(A829P)): 2%; percent of control binding at 1 µM (KIT(D816V)): 61%; remaining binding at 1 µM (LCK): 0.4%; remaining binding at 1 µM (MAP4K5): 38%; percent of control binding at 1 µM (PDGFRA): 11%; remaining binding at 1 µM (PFTAIRE2): 76%; remaining binding at 1 µM (RIOK3): 40%; % Cont @ 1 uM (SIK): 14%; remaining binding at 1 µM (STK36): 45%; remaining binding at 1 µM (TAK1): 50%; remaining binding at 1 µM (TIE1): 4.1%; remaining binding at 1 µM (TRKC): 1.4%; % Cont @ 1 uM [6]: 72%; remaining binding at 1 µM (YSK4): 3%; remaining binding at 1 µM (p38-beta): 15%
"Cc1cn(-c2cc(NC(=O)c3cc(C#Cc4cnc5c(Nc6cnn(C)c6)cccn45)c(C)cc3F)cc(C(C)(C)C#N)c2)cn1 [Example 1, N-(3-(2-cyanopropane-2-yl)-5-(4-methyl-1H-imidazol-1-yl)phenyl)-2-fluoro-4-methyl-5-((8-((1-methyl-1H-pyrazol-4-yl)amino)imidazo[1,2-a]pyridin-3-yl)ethynyl)benzamide]",0.55%,15%,2.3%,26%,27%,13%,4.7%,0.7%,2%,11%,1.3%,5.7%,4.1%,4%,8.9%,34%,10%,1.6%,1.2%,0.25%,% Cont @ 1 uM (FLT3(ITD)): 1.1%; remaining binding at 1 µM (FLT4): 0.35%; remaining binding at 1 µM (FYN): 3%; percent of control binding at 1 µM (KIT(A829P)): 1.1%; percent of control binding at 1 µM (KIT(D816V)): 13%; remaining binding at 1 µM (LCK): 0.15%; remaining binding at 1 µM (MAP4K5): 0.95%; percent of control binding at 1 µM (PDGFRA): 2%; remaining binding at 1 µM (PFTAIRE2): 4.3%; remaining binding at 1 µM (RIOK3): 31%; % Cont @ 1 uM (SIK): 2%; remaining binding at 1 µM (STK36): 20%; remaining binding at 1 µM (TAK1): 4.3%; remaining binding at 1 µM (TIE1): 3.5%; remaining binding at 1 µM (TRKC): 0.05%; % Cont @ 1 uM [6]: 33%; remaining binding at 1 µM (YSK4): 0.3%; remaining binding at 1 µM (p38-beta): 0.85%
